Test results published in patent US9765105B2, “Macrolide compound” (Pulike Biological Engineering, Inc., priority 2013, dated 2017).

Legend:
Assay in all cases: in vitro susceptibility, MIC by mini broth dilution
Format in all cases: cell-based
[1] = test system: Pasteurella multocida CVCC399; conditions: strain CVCC399
Procedure, shortened: (§1)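 Following the NCCLS standard, each compound is serially halved in DMSO to give 11 concentrations, run in duplicate alongside a control well. Inocula come from colonies grown 20 h at 35° C and are diluted 1:200 into broth; MIC is taken by mini broth dilution.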

[2] = test system: Haemophilus parasuis
Procedure, shortened: as §1

[3] = test system: Actinobacillus pleuropneumoniae CVCC262; conditions: strain CVCC262
Procedure, shortened: as §1

[4] = test system: Streptococcus equines CVCC556; conditions: strain CVCC556
Procedure, shortened: as §1

[5] = test system: Staphylococcus aureus CVCC26003; conditions: strain CVCC26003
Procedure, shortened: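 MICs were determined by mini broth dilution under NCCLS standards in CAMHB, using revived S. aureus CVCC26003 subcultured 20 h at 35° C. Compounds were two-fold serially diluted in DMSO across 11 wells, with duplicate rows. Bacterial suspension was diluted 1:200 in medium before inoculation.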

With `CC[C@H]1OC(=O)[C@H](C)[C@@H](O[C@H]2C[C@@](C)(OC)[C@](O)(CNc3ccccc3F)[C@H](C)O2)[C@H](C)[C@@H](O[C@@H]2O[C@H](C)C[C@H](N(C)C)[C@H]2O)[C@](C)(O)C[C@@H](C)NC[C@H](C)[C@@H](O)[C@]1(C)O` [syzx-68, (2R,3S,4R,5S,8R,10R,11R,12S,13S,14R)-13-[(2,6-dideoxy-3-C-methyl-3-O-methyl-4-C-[(2-fluoro-phenyl-amino)-methyl]-α-L-ribopyranosyl)oxy]-2-ethyl-3,4,10-trihydroxy-3,5,8,10,12,14-hexamethyl-11-[[3,4,6-trideoxy-3-(dimethylamino)-β-D-xylo-hexopyranosy]oxy]-1-oxa-7-azacyclopentadecan-15-one] the “MIC values, Pasteurella multocida CVCC399” value [1] was 8 ug/mi, the “MIC values, Haemophilus parasuis” value [2] was “≦0.25 ug/mi” and the “MIC values, Actinobacillus pleuropneumoniae CVCC262” value [3] was 8 ug/mi. The “MIC values, Streptococcus equines CVCC556” value [4] was “≦0.25 ug/mi” and the “MIC values, Staphylococcus aureus CVCC26003” value [5] was “≦0.25 ug/mi”.
In the case of `CCCN1C[C@H](C)[C@@H](O)[C@](C)(O)[C@@H](CC)OC(=O)[C@H](C)[C@@H](O[C@H]2C[C@@](C)(OC)[C@](O)(CNc3ccnc(Cl)c3)[C@H](C)O2)[C@H](C)[C@@H](O[C@@H]2O[C@H](C)C[C@H](N(C)C)[C@H]2O)[C@](C)(O)C[C@H]1C` [syzx-138], the “MIC values, Pasteurella multocida CVCC399” value [1] was 8 ug/mi, the “MIC values, Haemophilus parasuis” value [2] was 2 ug/mi and the “MIC values, Actinobacillus pleuropneumoniae CVCC262” value [3] was 2 ug/mi. For the same compound, the “MIC values, Streptococcus equines CVCC556” value [4] was 0.5 ug/mi and the “MIC values, Staphylococcus aureus CVCC26003” value [5] was 2 ug/mi.
With `CC[C@H]1OC(=O)[C@H](C)[C@@H](O[C@H]2C[C@@](C)(OC)[C@](O)(CNCc3ccco3)[C@H](C)O2)[C@H](C)[C@@H](O[C@@H]2O[C@H](C)C[C@H](N(C)C)[C@H]2O)[C@](C)(O)C[C@@H](C)NC[C@H](C)[C@@H](O)[C@]1(C)O` [syzx-71, (2R,3S,4R,5S,8R,10R,11R,12S,13S,14R)-13-[(2,6-dideoxy-3-C-methyl-3-O-methyl-4-C-[(2-furfuryl-amino)-methyl]-α-L-ribopyranosyl)oxy]-2-ethyl-3,4,10-trihydroxy-3,5,8,10,12,14-hexamethyl-11-[[3,4,6-trideoxy-3-(dimethylamino)-β-D-xylo-hexopyranosy]oxy]-1-oxa-7-azacyclopentadecan-15-one] the “MIC values, Pasteurella multocida CVCC399” value [1] was “≦0.25 ug/mi”, the “MIC values, Haemophilus parasuis” value [2] was 8 ug/mi and the “MIC values, Actinobacillus pleuropneumoniae CVCC262” value [3] was 16 ug/mi. The “MIC values, Streptococcus equines CVCC556” value [4] was “≦0.25 ug/mi” and the “MIC values, Staphylococcus aureus CVCC26003” value [5] was 8 ug/mi.
With `CCCN1C[C@H](C)[C@@H](O)[C@](C)(O)[C@@H](CC)OC(=O)[C@H](C)[C@@H](O[C@H]2C[C@@](C)(OC)[C@](O)(CNCCCCO)[C@H](C)O2)[C@H](C)[C@@H](O[C@@H]2O[C@H](C)C[C@H](N(C)C)[C@H]2O)[C@](C)(O)C[C@H]1C` [syzx-133] the “MIC values, Pasteurella multocida CVCC399” value [1] was 2 ug/mi, the “MIC values, Haemophilus parasuis” value [2] was 0.5 ug/mi and the “MIC values, Actinobacillus pleuropneumoniae CVCC262” value [3] was 1 ug/mi. For the same compound, the “MIC values, Streptococcus equines CVCC556” value [4] was 0.5 ug/mi and the “MIC values, Staphylococcus aureus CVCC26003” value [5] was 1 ug/mi.
In the case of `CC[C@H]1OC(=O)[C@H](C)[C@@H](O[C@H]2C[C@@](C)(OC)[C@](O)(CNCCCN3CCOCC3)[C@H](C)O2)[C@H](C)[C@@H](O[C@@H]2O[C@H](C)C[C@H](N(C)C)[C@H]2O)[C@](C)(O)C[C@@H](C)NC[C@H](C)[C@@H](O)[C@]1(C)O` [syzx-69, (2R,3S,4R,5S,8R,10R,11R,12S,13S,14R)-13-[(2,6-dideoxy-3-C-methyl-3-O-methyl-4-C-[(3-morpholinyl-propyl-amino)-methyl]-α-L-ribopyranosyl)oxy]-2-ethyl-3,4,10-trihydroxy-3,5,8,10,12,14-hexamethyl-11-[[3,4,6-trideoxy-3-(dimethylamino)-β-D-xylo-hexopyranosy]oxy]-1-oxa-7-azacyclopentadecan-15-one], the “MIC values, Pasteurella multocida CVCC399” value [1] was 0.5 ug/mi, the “MIC values, Haemophilus parasuis” value [2] was 1 ug/mi and the “MIC values, Actinobacillus pleuropneumoniae CVCC262” value [3] was 1 ug/mi. For the same compound, the “MIC values, Streptococcus equines CVCC556” value [4] was 0.5 ug/mi and the “MIC values, Staphylococcus aureus CVCC26003” value [5] was 1 ug/mi.
`CCCN1C[C@H](C)[C@@H](O)[C@](C)(O)[C@@H](CC)OC(=O)[C@H](C)[C@@H](O[C@H]2C[C@@](C)(OC)[C@](O)(CNC3CCCCCC3)[C@H](C)O2)[C@H](C)[C@@H](O[C@@H]2O[C@H](C)C[C@H](N(C)C)[C@H]2O)[C@](C)(O)C[C@H]1C` [syzx-203] was tested, and the “MIC values, Pasteurella multocida CVCC399” value [1] was 0.25 ug/mi, the “MIC values, Haemophilus parasuis” value [2] was 0.5 ug/mi and the “MIC values, Actinobacillus pleuropneumoniae CVCC262” value [3] was 1 ug/mi. The “MIC values, Streptococcus equines CVCC556” value [4] was 1 ug/mi and the “MIC values, Staphylococcus aureus CVCC26003” value [5] was 1 ug/mi.
For `CCCN1CC(C)C(O)C(C)(O)C(CC)OC(=O)C(C)C(OC2CC(C)(OC)C(O)(Cn3ccnn3)C(C)O2)C(C)C(OC2OC(C)CC(N(C)C)C2O)C(C)(O)CC1C` (stereo not shown) [syzx-109], the “MIC values, Pasteurella multocida CVCC399” value [1] was 1 ug/mi, the “MIC values, Haemophilus parasuis” value [2] was 0.25 ug/mi and the “MIC values, Actinobacillus pleuropneumoniae CVCC262” value [3] was 0.25 ug/mi. For the same compound, the “MIC values, Streptococcus equines CVCC556” value [4] was 0.25 ug/mi and the “MIC values, Staphylococcus aureus CVCC26003” value [5] was 0.25 ug/mi.
With `CCCN1CC(C)C(O)C(C)(O)C(CC)OC(=O)C(C)C(OC2CC(C)(OC)C(O)(CNC(CO)CO)C(C)O2)C(C)C(OC2OC(C)CC(N(C)C)C2O)C(C)(O)CC1C` (stereo not shown) [syzx-145] the “MIC values, Pasteurella multocida CVCC399” value [1] was 2 ug/mi, the “MIC values, Haemophilus parasuis” value [2] was 0.5 ug/mi and the “MIC values, Actinobacillus pleuropneumoniae CVCC262” value [3] was 64 ug/mi. The “MIC values, Streptococcus equines CVCC556” value [4] was 0.5 ug/mi and the “MIC values, Staphylococcus aureus CVCC26003” value [5] was 1 ug/mi.
With `CCCN1C[C@H](C)[C@@H](O)[C@](C)(O)[C@@H](CC)OC(=O)[C@H](C)[C@@H](O[C@H]2C[C@@](C)(OC)[C@](O)(CNCc3ccc([N+](=O)[O-])cc3)[C@H](C)O2)[C@H](C)[C@@H](O[C@@H]2O[C@H](C)C[C@H](N(C)C)[C@H]2O)[C@](C)(O)C[C@H]1C` [syzx-119] the “MIC values, Pasteurella multocida CVCC399” value [1] was 1 ug/mi, the “MIC values, Haemophilus parasuis” value [2] was 0.25 ug/mi and the “MIC values, Actinobacillus pleuropneumoniae CVCC262” value [3] was 0.25 ug/mi. The “MIC values, Streptococcus equines CVCC556” value [4] was 0.25 ug/mi and the “MIC values, Staphylococcus aureus CVCC26003” value [5] was 0.25 ug/mi.
In the case of `CCC1OC(=O)C(C)C(OC2CC(C)(OC)C(O)(CNCNCc3ccc(C=O)cc3)C(C)O2)C(C)C(OC2OC(C)CC(N(C)C)C2O)C(C)(O)CC(C)NCC(C)C(O)C1(C)O` [syzx-39, (2R,3S,4R,5S,8R,10R,11R,12S,13S,14R)-13-[(2,6-dideoxy-3-C-methyl-3-O-methyl-4-C-[[[(4-formyl-benzyl-amino)-methyl]amino]-methyl]-α-L-ribopyranosyl)oxy]-2-ethyl-3,4,10-trihydroxy-3,5,8,10,12,14-hexamethyl-11-[[3,4,6-trideoxy-3-(dimethylamino)-β-D-xylo-hexopyranosy]oxy]-1-oxa-7-azacyclopentadecan-15-one], the “MIC values, Pasteurella multocida CVCC399” value [1] was 0.5 ug/mi, the “MIC values, Haemophilus parasuis” value [2] was 0.25 ug/mi and the “MIC values, Actinobacillus pleuropneumoniae CVCC262” value [3] was 0.25 ug/mi. For the same compound, the “MIC values, Streptococcus equines CVCC556” value [4] was 0.5 ug/mi and the “MIC values, Staphylococcus aureus CVCC26003” value [5] was 0.25 ug/mi.
With `CCCN1C[C@H](C)[C@@H](O)[C@](C)(O)[C@@H](CC)OC(=O)[C@H](C)[C@@H](O[C@H]2C[C@@](C)(OC)[C@](O)(CN3CCCC3)[C@H](C)O2)[C@H](C)[C@@H](O[C@@H]2O[C@H](C)C[C@H](N(C)C)[C@H]2O)[C@](C)(O)C[C@H]1C` [syzx-209] the “MIC values, Pasteurella multocida CVCC399” value [1] was 0.25 ug/mi, the “MIC values, Haemophilus parasuis” value [2] was 0.25 ug/mi and the “MIC values, Actinobacillus pleuropneumoniae CVCC262” value [3] was 0.25 ug/mi. The “MIC values, Streptococcus equines CVCC556” value [4] was 0.25 ug/mi and the “MIC values, Staphylococcus aureus CVCC26003” value [5] was 0.25 ug/mi.
`CCCN1C[C@H](C)[C@@H](O)[C@](C)(O)[C@@H](CC)OC(=O)[C@H](C)[C@@H](O[C@H]2C[C@@](C)(OC)[C@](O)(CNc3cc(OC)cc(OC)c3)[C@H](C)O2)[C@H](C)[C@@H](O[C@@H]2O[C@H](C)C[C@H](N(C)C)[C@H]2O)[C@](C)(O)C[C@H]1C` [syzx-176] was tested, and the “MIC values, Pasteurella multocida CVCC399” value [1] was 2 ug/mi, the “MIC values, Haemophilus parasuis” value [2] was 0.5 ug/mi and the “MIC values, Actinobacillus pleuropneumoniae CVCC262” value [3] was 0.25 ug/mi. For the same compound, the “MIC values, Streptococcus equines CVCC556” value [4] was 0.25 ug/mi and the “MIC values, Staphylococcus aureus CVCC26003” value [5] was 0.5 ug/mi.
In the case of `CCCN1C[C@H](C)[C@@H](O)[C@](C)(O)[C@@H](CC)OC(=O)[C@H](C)[C@@H](O[C@H]2C[C@@](C)(OC)[C@](O)(CNCCc3c[nH]c4ccccc34)[C@H](C)O2)[C@H](C)[C@@H](O[C@@H]2O[C@H](C)C[C@H](N(C)C)[C@H]2O)[C@](C)(O)C[C@H]1C` [syzx-174], the “MIC values, Pasteurella multocida CVCC399” value [1] was 8 ug/mi, the “MIC values, Haemophilus parasuis” value [2] was 2 ug/mi and the “MIC values, Actinobacillus pleuropneumoniae CVCC262” value [3] was 4 ug/mi. For the same compound, the “MIC values, Streptococcus equines CVCC556” value [4] was 0.25 ug/mi and the “MIC values, Staphylococcus aureus CVCC26003” value [5] was 4 ug/mi.
For `CCCN1C[C@H](C)[C@@H](O)[C@](C)(O)[C@@H](CC)OC(=O)[C@H](C)[C@@H](O[C@H]2C[C@@](C)(OC)[C@](O)(CNc3ccc(C)cc3C)[C@H](C)O2)[C@H](C)[C@@H](O[C@@H]2O[C@H](C)C[C@H](N(C)C)[C@H]2O)[C@](C)(O)C[C@H]1C` [syzx-229], the “MIC values, Pasteurella multocida CVCC399” value [1] was 16 ug/mi, the “MIC values, Haemophilus parasuis” value [2] was 4 ug/mi and the “MIC values, Actinobacillus pleuropneumoniae CVCC262” value [3] was 4 ug/mi. The “MIC values, Streptococcus equines CVCC556” value [4] was 0.25 ug/mi and the “MIC values, Staphylococcus aureus CVCC26003” value [5] was 4 ug/mi.
